Consider 5 molecules from patent publication US20050137251A1, “Dexanabinol and dexanabinol analogs regulate inflammation related genes” (priority 2002, published 2005).

One assay relates to PGE2 secretion. Nature of the assay: Inhibition of PGE2 secretion in LPS activated mouse macrophages (RAW 264.7). It is filed as cell-based. The following applies: RAW264.7, LPS activated RAW 264.7 cells, same experimental setup, known anti-inflammatory drugs. The protocol: The assay reproduces in vitro the true enzymatic activity, the test compounds, up to 10 μM, were preincubated for 5 minutes with purified COX-2, then the natural substrate AA was added and the reaction was allowed to proceed for 2 minutes. HCl was used to stop the enzyme catalysis and saturated stannous chloride was added to stabilize the PGH2 product into PGF2α.
RAW 264.7 macrophages, a mouse cell line (ATCC # TIB 71), were grown in Dulbecco's modified Eagle's medium (DMEM) with 4 mM L-glutamine adjusted to contain 1.5 g/L sodium bicarbonate, 4.5 g/L glucose, and 10% heat inactivated fetal bovine serum. Cells were grown in tissue culture flasks and seeded at appropriate density into 24 wells tissue culture plates. 0.5×10^6 Raw cells in one milliliter were stimulated with 2 μg/ml Lipopolysaccharide E. coli 055:B5 (DIFCO Laboratories). The mouse macrophages were pre-treated for one hour with controls or 10 μM of dexanabinol and its analogs, unless indicated otherwise, and later on activated with LPS.

Assay [1] has as its system carrageenan induced paw edema. As to the kind of experiment: Carrageenan induced paw edema. The assay is classed as in vivo, mice. The note with it: 3 hours after carrageenan.
For assay [2], the system named is ConA injured liver (ALT release). As to the kind of experiment: ALT release from ConA injured liver. The assay is classed as in vivo, mice. The following applies: PRS-211,092 5 mg/kg, FK-506 1 mg/kg. As to the method:
(§1) Each experimental group contained at least twenty BALB/c inbred female mice (25 g average weight, Harlan, Israel). The negative control group was composed of mice injected with saline instead of ConA. The injection of ConA (Sigma) was done i.v. at the base of the tail at the dose of 15 mg/kg in saline. The treatments were injected i.v. at 5 mg/kg, 30 minutes before ConA injection, unless indicated otherwise. Compounds were dissolved in cremophor:ethanol, further diluted with saline before injection, and vehicle only was included as an internal control. Analysis was performed at predetermined time points following ConA injection.
Impact of treatment was monitored at three levels. First, blood samples (200-400 μl) were collected at predetermined time points after ConA injection, using retro-orbital puncture. After short centrifugation (5000 rpm for 2 min) serum was recovered and stored at −80° C. until further use for determination of cytokines concentrations by ELISA and aminotransferase release from the liver as a marker for liver injury.
Alanine aminotransferase (ALT) is an enzyme found mainly in the liver and it is measured to determine whether the liver is damaged or diseased in a variety of human conditions, especially hepatitis and cirrhosis. The level of its release into the bloodstream linearly correlates with the severity of the liver injury and thus it can be used both for diagnosis purposes and to monitor the efficiency of a treatment. The time course of plasma ALT release after ConA injection is known from the literature to peak at eight hours. […] We used this assay to preliminarily assess the temporal window of PRS-211,092 efficiency and the compound was administered either 30 or 60 minutes after induction of injury. […] FK-506 was used as positive control and at the dose of 1 mg/kg, it reduced ALT concentrations by 92%, 93% and 86% when injected at the three previously described time points. Thus, the test compound has an important beneficial impact on liver injury as assessed by the reduction of ALT, a robust marker of the liver injury. […]

The test system of a further assay is SAA-3 gene expression. As to the kind of experiment: SAA-3 liver gene expression (acute phase response), ConA model. The following applies: 1 mg/kg, on average at both time points of four and eight hours. It is filed as in vivo, mice. As to the method:
(§2) II reverse transcriptase (Life Technologies).
as §1
(§3) The acute phase response is an innate body defense seen during acute inflammation, infection and trauma, which involves the altered production of certain blood proteins termed acute phase proteins (APPs). As previously stated activated macrophages and other leukocytes release pro-inflammatory cytokines such as TNF-α, IL-1 and IL-6. These cytokines in turn stimulate hepatocytes to synthesize and secrete acute phase proteins such as C-reactive protein (CRP), mannose-binding lectin (MBL), haptoglobin and serum amyloid A (SAA). Measurement of acute phase protein level is used to monitor the severity of the innate response and thus predict the prognosis of the disease. […]

Assay [3] concerns haptoglobin gene expression. Nature of the assay: Haptoglobin liver gene expression (acute phase response), ConA model. The assay is classed as in vivo, mice. The note with it: 1 mg/kg, on average at both time points of four and eight hours. As to the method: as §2, §1, §3
The target in a further assay is recombinant COX-2 (Homo sapiens, UniProt P35354). As to the kind of experiment: In vitro enzymatic activity of recombinant COX-2 (PGF2α EIA). It is filed as biochemical.
recombinant COX-2, sequence (P35354 18-604): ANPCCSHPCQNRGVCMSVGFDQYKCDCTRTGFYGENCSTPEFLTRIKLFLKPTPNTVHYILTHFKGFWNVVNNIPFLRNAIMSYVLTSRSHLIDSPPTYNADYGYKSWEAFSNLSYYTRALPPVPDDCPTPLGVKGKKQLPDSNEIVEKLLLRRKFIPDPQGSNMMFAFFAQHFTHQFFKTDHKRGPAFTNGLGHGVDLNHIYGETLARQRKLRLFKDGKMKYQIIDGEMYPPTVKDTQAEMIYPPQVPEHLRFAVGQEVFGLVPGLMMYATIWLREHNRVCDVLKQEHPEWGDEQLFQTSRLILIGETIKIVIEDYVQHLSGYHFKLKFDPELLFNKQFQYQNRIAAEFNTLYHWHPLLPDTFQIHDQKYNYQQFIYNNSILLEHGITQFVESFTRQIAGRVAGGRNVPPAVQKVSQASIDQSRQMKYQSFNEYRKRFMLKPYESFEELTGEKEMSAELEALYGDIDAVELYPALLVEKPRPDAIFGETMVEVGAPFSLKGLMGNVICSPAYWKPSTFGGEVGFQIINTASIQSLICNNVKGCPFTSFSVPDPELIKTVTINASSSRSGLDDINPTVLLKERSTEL

Regarding `Cc1ccc(-c2cc(C(F)(F)F)nn2-c2ccc(S(N)(=O)=O)cc2)cc1` [Celecoxib], the IC50 in the assay on PGE2 secretion was found to be 5 nM. Besides, the “Reduction in paw thickness” value in assay [1] (0.1 mg/kg i.p.) worked out at 24%; in assay [1] (0.25 mg/kg i.p.) it was 28%; in assay [1] (0.5 mg/kg i.p.), 33%.
Turning to `C[C@@H]1C[C@H]2[C@@H]3CCC4=CC(=O)C=C[C@]4(C)[C@@]3(F)[C@@H](O)C[C@]2(C)[C@@]1(O)C(=O)CO` [Dexamethasone], the “Reduction in paw thickness” value worked out at 26% in assay [1] (0.1 mg/kg i.p.), 31% in assay [1] (0.25 mg/kg i.p.) and 33% in assay [1] (0.5 mg/kg i.p.).
On to `C=CC[C@@H]1/C=C(\C)C[C@H](C)C[C@H](OC)[C@H]2O[C@@](O)(C(=O)C(=O)N3CCCC[C@H]3C(=O)O[C@H](/C(C)=C/[C@@H]3CC[C@@H](O)[C@H](OC)C3)[C@H](C)[C@@H](O)CC1=O)[C@H](C)C[C@@H]2OC` [FK-506], for which the “Reduction of ALT concentrations” value amounted to 93% in assay [2] (administered 30 minutes after induction of injury); 92% in assay [2] (administered 30 minutes before ConA, 8 hours after ConA); 86% in assay [2] (administered 60 minutes after induction of injury). The “Reduction in gene expression of SAA-3” value in the assay on SAA-3 gene expression is on record as 97%. For the same molecule, the “Reduction in gene expression of haptoglobin” value in assay [3] is reported as 78%.
The molecule `CS(=O)(=O)Nc1ccc([N+](=O)[O-])cc1OC1CCCCC1` [NS-398] showed an IC50 in the assay with PGE2 secretion of 100 nM.
`CS(=O)(=O)c1ccc(C2=C(c3ccccc3)C(=O)OC2)cc1` [Rofecoxib, reference compound] gave an IC50 with PGE2 secretion of 100 nM. For the same molecule, the “Inhibition of COX-2 enzymatic activity” value on recombinant COX-2 was “strongly inhibited”.
